Data: patent EP2805705B1, “Packaging with one or more administration units comprising a sodium salt of (R)-3-[6-amino-pyridin-3-yl]-2-(1-cyclohexyl-1 H-imidazol-4-yl)-propionic acid” (IP Gesellschaft für Management mbH, priority 2013, dated 2014)

Columns and labels:
Format in all cases: physicochemical
[1] = Dynamic vapor sorption (DVS), SPS11-10µ, one cycle at 25 °C; settings: DVS isotherm at 25 °C
Description: (§1) Example 7: Dynamic vapor sorption (DVS) of (R)-3-[6-amino-pyridin-3-yl]-2-(1-cyclohexyl-1 H-imidazol-4-yl)-propionic acid sodium salt monohydrate: Moisture sorption/desorption isotherms were recorded on a SPS11-10µ from Projekt Messtechnik (Ulm, Germany). One cycle was run at 25 °C, in which the sample was first stepwise decreased to 0% RH and then the relative humidity was stepwise increased from 0 to 95% and the weight of the sample was measured. Typical total measurement times for both cycles were about 20 to 30 hours. The measured data for the (R)-3-[6-amino-pyridin-3-yl]-2-(1-cyclohexyl-1 H-imidazol-4-yl)-propionic acid sodium salt monohydrate as prepared in Examples 2 or 3 are shown in the following table: DVS Isotherm at 25 °C:
(§2) Example 12: DVS, Comparison Experiment: (R)-3-[6-amino-pyridin-3-yl]-2-(1-cyclohexyl-1 H-imidazol-4-yl)-propionic acid as prepared in Example 1 was used for the measurement. The measurement was performed as disclosed in Example 7 with (R)-3-[6-amino-pyridin-3-yl]-2-(1-cyclohexyl-1 H-imidazol-4-yl)-propionic acid (free acid, amorphous) and the received data are shown in the following table: DVS Isotherm at 25 °C
as §1, with “(DVS):” for “(DVS) of (R)-3-[6-amino-pyridin-3-yl]-2-(1-cyclohexyl-1 H-imidazol-4-yl)-propionic acid sodium salt monohydrate:”, “Room humidity (RH)” for “RH”, “dihydrate” for “monohydrate”, “Example” for “Examples 2 or”, “isotherm” for “Isotherm”, “25°C:” for “25 °C:”
as §2, with “9:” for “12:”

[2] = Chiral stability on storage as a solid at 40 °C and 75 % RH (chiral HPLC)
Description: Example 8: Chiral stability: Representative samples of the crystalline sodium salt of (R)-3-[6-amino-pyridin-3-yl]-2-(1-cyclohexyl-1 H-imidazol-4-yl)-propionic acid sodium salt dihydrate as prepared in Example 3 were stored as a solid under the conditions (A) and (B): (A) 40 °C and 75 % RH 2 weeks; (B) 40 °C and 75 % RH 4 weeks: Results are shown in the following table:
Under the storage conditions the samples remain stable. […] The purity was determined by chiral HPLC on a HPLC system containing a Quaternary HPLC pump (e.g. HP 1100), an auto sampler, an UV absorbance detector (e.g. DAD Agilent Technologies or other adequate HPLC-System) and a computer data acquisition system with suitable software (e.g. Dionex-Chromeleon). A Zorbax SB_CN (4.6 x 100 mm, 3.5 µlτ ? ), column was used as stationary phase and two mobile phases A (975 mL water, 25 mL methanol, 1 mL perchloric acid) and B (975 mL methanol, 25 mL water) were used as mobile phases. The flow rate was set to a value of 1.0 mL/minute and the oven temperature was set to 15°C. Detection was performed by absorbance of the compounds at 236 nm (UV) (bandwidth: 4 nm) and reference wavelength was set to 450 nm (bandwidth: 50 nm). Typical total run times were in the range of about 10 minutes. For sample preparation 20 mg of the substance were accurately weighed into a 10 ml volumetric flask and dissolved and diluted to volume with solvent (acetonitrile/water 90:10 VN). Afterwards 1 ml of this solution was transferred to a 10 mL volumetric flask and then diluted to volume with water. For the HPLC analysis 5 µl of the sample were injected into the system. Gradient used: 0 min (time elapsed) 0% mobile phase B, 1 min 0% mobile phase B, 4 min 53% mobile phase B, 6 min 95% mobile phase B, 7 min 95% mobile phase B, 7.5 min 0% mobile phase B and after 10 min 0% mobile phase B. Enanatiomeric excess was determined by chiral HPLC on a HPLC system containing a Quaternary HPLC pump (e.g. HP 1100), an auto sampler, an UV absorbance detector (e.g. DAD Agilent Technologies or other adequate HPLC-System) and a computer data acquisition system with suitable software (e.g. Dionex-Chromeleon). A Chirobiotic R, Supelco (Astec) (4.6 x 250mm; 5µηη) column was used as stationary phase and a solution of 800 mL water, 1200 mL acetonitrile and 1.0 g ammoniumacetate was used as mobile phase. The flow rate was set to a value of 1.5 mL/minute and the oven temperature was set to 45°C. Detection was performed by absorbance of the compounds at 236 nm (UV) (bandwidth: 8 nm) and reference wavelength was set to 450 nm (bandwidth: 50 nm). Typical total run times were in the range of about 15 minutes. For sample preparation 50 mg of the substance were accurately weighed into a 10 mL volumetric flask and dissolved and diluted to volume with solvent (acetonitrile/water 50:50). For the HPLC analysis 5 µí of the sample were injected into the system. Gradient used: Isograt (15 minutes 100% mobile phase A).
Example 10: Chiral stability; Comparison Experiment: (R)-3-[6-amino-pyridin-3-yl]-2-(1-cyclohexyl-1 H-imidazol-4-yl)-propionic acid as prepared in Example 1 was used for the measurement. Representative samples of the compound (R)-3-[6-amino-pyridin-3-yl]-2-(1-cyclohexyl-1 H-imidazol-4-yl)-propionic acid as prepared in Example 1 were stored as a solid under the conditions (A) and (B) as defined in Example 8.

[3] = Dynamic vapor sorption (DVS), DVS-1 instrument, two cycles at 25 °C; settings: for weight increase in the sorption step: 25 °C
[4] = Determination of solubility in a mixture of acetone and water (4:1, by volume); settings: for Solubility [g in 100 g of solvent]: acetone and water (4:1, by volume); for solubility compared with polymorph 1: result in words
Description: Determination of solubility: For the determination of the solubility in a mixture of acetone and water (4:1, by volume), samples of 0.5 mg to 50 mg of the test substances were suspended in a defined amount of the solvent (800 mg to 1200 mg) in screw cap vials with a magnetic stirring bar, which were placed in a temperature-controlled multiple stirring device equipped for transmission measurement (Avantium Crystal 16). With stirring at 700 rpm, the vials were cooled from room temperature to 0 °C and then heated to 60 °C with a heating rate of 3 °C/h, kept at 60 °C for 2 h and cooled again to 0 °C with a cooling rate of 3 °C/h. By means of transmission measurement it was determined whether the sample was dissolved (100 % transmission), or crystals were present. For polymorph 1 ({drug5b}), polymorph 2 ({drug5c}), hydrate 1 ({drug5e}) and hydrate 2 ({drug5f}) of compound (V) the following solubilities in a mixture of acetone and water (4:1, by volume) were determined.

Nc1ccc(C[C@@H](C(=O)[O-])c2cn(C3CCCCC3)cn2)cn1.O.O.[Na+] [(R)-3-[6-amino-pyridin-3-yl]-2-(1-cyclohexyl-1 H-imidazol-4-yl)-propionic acid sodium salt dihydrate]
Change In Mass (%) Desorption ([1]; Target RH 0.3 %): -0.1%
Change In Mass (%) Desorption ([1]; Target RH 10.0 %): 0.0%
Change In Mass (%) Sorption ([1]; Target RH 10.0 %): 0.0%
Change In Mass (%) Sorption ([1]; Target RH 20.0 %): 0.0%
Change In Mass (%) Desorption ([1]; Target RH 20.1 %): 0.0%
Change In Mass (%) Sorption ([1]; Target RH 30.0 %): 0.0%
Change In Mass (%) Desorption ([1]; Target RH 30.1 %): 0.0%
Change In Mass (%) Sorption ([1]; Target RH 40.0 %): 0.0%
Change In Mass (%) Sorption ([1]; Target RH 50.0 %): 0.0%
Change In Mass (%) Sorption ([1]; Target RH 60.0 %): 0.1%
Change In Mass (%) Sorption ([1]; Target RH 70.1 %): 0.71%
Change In Mass (%) Sorption ([1]; Target RH 75.0 %): 0.8%
Change In Mass (%) Sorption ([1]; Target RH 80.0 %): 2.1%
Change In Mass (%) Sorption ([1]; Target RH 85.1 %): 2.7%
Change In Mass (%) Sorption ([1]; Target RH 90.1 %): 18.8%
Change In Mass (%) Sorption ([1]; Target RH 94.9 %): 51.8%
Enantiomeric excess ([2]; Storage condition (A) 40 °C and 75 % RH 2 weeks, stored as a solid): 99.6%
Enantiomeric excess ([2]; Storage condition (B) 40 °C and 75 % RH 4 weeks, stored as a solid): 99.5%
Enantiomeric excess ([2]; at the beginning): 99.6%

Nc1ccc(C[C@@H](C(=O)[O-])c2cn(C3CCCCC3)cn2)cn1.O.[Na+] [(R)-3-[6-amino-pyridin-3-yl]-2-(1-cyclohexyl-1 H-imidazol-4-yl)-propionic acid sodium salt monohydrate]
Change In Mass (%) Desorption ([1]; Target RH 0.2 %): -4.4%
Change In Mass (%) Desorption ([1]; Target RH 10.0 %): -0.6%
Change In Mass (%) Sorption ([1]; Target RH 10.0 %): -3.7%
Change In Mass (%) Desorption ([1]; Target RH 20.0 %): -0.1%
Change In Mass (%) Sorption ([1]; Target RH 20.0 %): -0.2%
Change In Mass (%) Sorption ([1]; Target RH 30.0 %): 0.2%
Change In Mass (%) Desorption ([1]; Target RH 30.1 %): 0.1%
Change In Mass (%) Sorption ([1]; Target RH 40.0 %): 0.6%
Change In Mass (%) Sorption ([1]; Target RH 50.0 %): 0.9%
Change In Mass (%) Sorption ([1]; Target RH 60.0 %): 1.5%
Change In Mass (%) Sorption ([1]; Target RH 70.0 %): 4.0%
Change In Mass (%) Sorption ([1]; Target RH 75.0 %): 8.2%
Change In Mass (%) Sorption ([1]; Target RH 80.1 %): 11.9%
Change In Mass (%) Sorption ([1]; Target RH 85.1 %): 17.7%
Change In Mass (%) Sorption ([1]; Target RH 90.0 %): 38.2%
Change In Mass (%) Sorption ([1]; Target RH 94.9 %): 67.4%

CNc1nccc(-c2cc3cc(C(=O)N[C@@H](CN(c4ccccc4)c4ncccn4)C(N)=O)ccc3[nH]2)n1.O.O [Hydrate 1, 2-(2-methylamino-pyrimidin-4-yl)-1 H-indole-5-carboxylic acid [(S)-1-carbamoyl-2-(phenyl-pyrimidin-2-yl-amino)-ethyl]-amide dihydrate]
hygroscopicity ([3]; result in words): low hygroscopicity
Solubility [g in 100 g of solvent] ([4]; Temperature 38.6 °C): 2.11 g in 100 g of solvent
Solubility [g in 100 g of solvent] ([4]; Temperature 49.7 °C): 3.39 g in 100 g of solvent
Solubility [g in 100 g of solvent] ([4]; Temperature 57.4 °C): 5.04 g in 100 g of solvent
solubility compared with polymorph 1 [4]: higher solubility than polymorph 1

CNc1nccc(-c2cc3cc(C(=O)N[C@@H](CN(c4ccccc4)c4ncccn4)C(N)=O)ccc3[nH]2)n1.O.O.O.O.O.O [Hydrate 2, 2-(2-methylamino-pyrimidin-4-yl)-1 H-indole-5-carboxylic acid [(S)-1-carbamoyl-2-(phenyl-pyrimidin-2-yl-amino)-ethyl]-amide hexahydrate]
Solubility [g in 100 g of solvent] ([4]; Temperature 36.8 °C): 0.50 g in 100 g of solvent
Solubility [g in 100 g of solvent] ([4]; Temperature 46.1 °C): 1.02 g in 100 g of solvent
Solubility [g in 100 g of solvent] ([4]; Temperature 55.9 °C): 2.61 g in 100 g of solvent
solubility compared with polymorph 1 [4]: higher solubility than polymorph 1

CNc1nccc(-c2cc3cc(C(=O)N[C@@H](CN(c4ccccc4)c4ncccn4)C(N)=O)ccc3[nH]2)n1 [Polymorph 2, 2-(2-methylamino-pyrimidin-4-yl)-1 H-indole-5-carboxylic acid [(S)-1-carbamoyl-2-(phenyl-pyrimidin-2-yl-amino)-ethyl]-amide]
weight increase in the sorption step ([3]; Relative humidity 40 %, first cycle): 0.2%
weight increase in the sorption step ([3]; Relative humidity 40 %, second cycle): 0.0%
weight increase in the sorption step ([3]; Relative humidity 60 %, first cycle): 0.3%
weight increase in the sorption step ([3]; Relative humidity 60 %, second cycle): 0.1%
weight increase in the sorption step ([3]; Relative humidity 80 %, first cycle): 0.4%
weight increase in the sorption step ([3]; Relative humidity 80 %, second cycle): 0.3%
weight increase in the sorption step ([3]; Relative humidity 95 %, first cycle): 0.8%
weight increase in the sorption step ([3]; Relative humidity 95 %, second cycle): 0.6%
water uptake (hygroscopicity) ([3]; at a high relative humidity of 80 %): about 0.4%
Solubility [g in 100 g of solvent] ([4]; Temperature 46.0 °C): 1.02 g in 100 g of solvent
Solubility [g in 100 g of solvent] ([4]; Temperature 57.5 °C): 2.48 g in 100 g of solvent
solubility compared with polymorph 1 [4]: higher solubility than polymorph 1
